Measured values published in article PMC5136666, “Epobis is a Nonerythropoietic and Neuroprotective Agonist of the Erythropoietin Receptor with Anti-Inflammatory and Memory Enhancing Effects” (Mediators of Inflammation, 2016).
Positions of bridges follow the written chain, without caps; N, C: chain ends. Chains are numbered I, II in the order given. No end group written: not given here.

Tests used:
EAE in Lewis rats = assay: Experimental autoimmune encephalomyelitis (EAE); assay type: in vivo
Protocol: Experimental autoimmune encephalomyelitis (EAE) was induced as described previously. Briefly, female Lewis rats (200 g) received subcutaneous injections at both sides of the base of the tail with 0.2 mL of an emulsion containing 1 g/L Guinea pig myelin basic protein and 1 g/L M. tuberculosis in Freund's complete adjuvant (all from Sigma-Aldrich). The injections were performed under full inhalation anesthesia. EAE was induced in 30 animals; 6 healthy, age-matched, unimmunized rats were used as controls. Between day 0 and day 21, the weight and clinical signs of EAE were recorded daily for all animals. Clinical signs were scored as follows: 0, no abnormality; 0.5, weak tail; 1, limp tail; 2, mild palsy of one or both hind legs; 3, severe palsy of one or both hind legs; 4, complete paralysis of one or both hind legs; 5, paralysis of one or both hind legs and beginning paralysis of front legs; 6, moribund. Animals with a clinical score ≥4 were sacrificed immediately.
Starting at day 10 after induction of EAE, animals were treated once/day for 5 consecutive days with Epobis (10 mg/kg, 1 mL/kg, s.c.) or PBS (1.0 mL/kg, s.c.). The control group is identical to the control group of previously published data performed simultaneously with the Epobis study.

EPO receptor = details: surface plasmon resonance; read-out: apparent KD; cited from earlier work
From the text: We have previously designed two synthetic, dendrimeric peptides with sequences corresponding to the first and the second EPO receptor binding site of human EPO, respectively. The peptide derived from binding site 2 was named Epotris and has previously been reported to promote neuritogenesis and neuronal survival in vitro and in vivo in a nonerythropoietic manner and to attenuate status epilepticus. The peptide derived from binding site 1 (residues 36–53 in the structural model of the EPO:EPO receptor-complex; PDB: 1EER [27]) was named Epobis, and surface plasmon resonance analy ...

[1] = tested on: TNF secretion from AMJ2-C8 macrophages; assay: Macrophage activation assay (TNF secretion estimated from L-cell viability); assay type: cell-based, mouse; details: untreated ~48%, MTS, 4 experiments
Protocol: The macrophage activation assay is used to estimate tumor necrosis factor (TNF) secretion from the macrophage cell line AMJ2-C8 (ATCC; Boras, Sweden). Fibroblastoid mouse L929 cells (L-cells; ECCC, Salisbury, UK) are sensitive to TNF upon exposure to actinomycin D, and L-cell survival can therefore be utilized as an indirect estimate of TNF concentrations. The assay was performed essentially as described previously. Briefly, AMJ2-C8 cells were plated in 6-well MultiDish plates (Nunc, Denmark) and treated with 100 μM hydrocortisone (Sigma-Aldrich, Brøndby, Denmark), […] (8.4 nM) rhEPO (Calbiochem, Merck Millipore, Denmark), or Epobis (0.9–8.1 μM) for 24 h. They were then exposed to 10 ng/mL interferon-γ (IFN-γ) (R&D Systems, UK) for 24 h to induce the production of TNF [34].
L-cells were seeded in 96-well Multiwell plates (2 × 10^5 cells/mL, 100 μL/well; Nunc) and grown for 24 h. Then conditioned medium from stimulated macrophages was collected and added to the L-cells together with actinomycin D (Sigma, Sigma-Aldrich). L-cell viability was assayed 24 h later by the MTS assay (Promega, Madison, WI, USA) according to the manufacture's protocol. Cell viability was calculated as follows: (1) cell viability %=ODexperiment/ODcontrol×100. […]

[2] = Detection of Epobis in plasma and cerebrospinal fluid; assay type: in vivo, Wistar rats; details: rat
Protocol: Detection of biotinylated Epobis in plasma was performed essentially as described previously. Briefly, 10 mg/kg Epobis was injected subcutaneously (s.c.) in anaesthetized 200 g Wistar rats, and blood samples were collected from the orbital plexus at selected time points. Cerebrospinal fluid (CSF) was sampled from the cisterna magna as described previously.
Subsequently the concentrations of peptide in serum plasma and CSF were estimated using a competitive enzyme-linked immunosorbent assay, where all samples were run in duplicate.

primary rat motoneurons = assay: Neurite outgrowth from primary motoneurons; assay type: cell-based; details: 24 h, bell-shaped concentration dependence, p < 0.0001, 3 independent experiments
Protocol: Primary rat motoneurons were isolated as described previously. Briefly, the ventral horns of the lumbar spinal cord were dissected from Wistar rat embryos (E15). The dissociated motoneurons were plated at a density of 7,000 cells per well on laminin-coated (5 μg/mL; Sigma-Aldrich) 8-well LabTek Permanox slides (NUNC, Denmark). Neurons were stimulated with serially diluted Epobis peptide for 24 h, fixed with 4% formalin, stained with polyclonal rabbit anti-rat growth-associated protein-43 antibodies (1 : 1000; Millipore), and analyzed by computer-assisted fluorescence microscopy as described.

[3] = tested on: hematocrit and hemoglobin levels in mice; assay: Hematopoiesis assay; assay type: in vivo; details: 10 mg/kg s.c. twice per week for 5 weeks, female C57BL/6J mice
Protocol: Estimates of hematopoietic activity of Epobis in female C57BL/6J mice were performed essentially as described previously. Briefly, Epobis (10 mg/kg), EPO (10 mg/kg; Calbiochem), or vehicle (PBS) was injected subcutaneously twice per week for 5 weeks. Blood samples were collected from the orbital plexus once per week, and hemoglobin levels and hematocrit values were determined as described.

[4] = tested on: TNF secretion from rat primary microglia; assay: LPS-induced TNF release from rat primary microglia (ELISA); assay type: cell-based; details: 0.9 μM, 1 h pretreatment, LPS 100 ng/mL 24 h, p < 0.05, 3 experiments
Protocol: Mixed glial cultures were prepared from 1-day-old to 2-day-old Wistar rat pups as described previously. Briefly, cortices were dissected, roughly chopped, and incubated in prewarmed 0.5% trypsin for 10 min. Then Dulbecco's modified Eagle's medium (DMEM) plus GlutaMAX (culture media; Gibco) containing 10% fetal calf serum, penicillin (100 U/mL), and streptomycin (100 U/mL) was added and tissue was triturated. The suspension was centrifuged at 500 ×g for 10 min, and the resulting pellet was resuspended in culture media and plated in a poly-L-lysine-coated T180 flask. The mixed glial culture was grown for 2-3 weeks at 37°C in a humidified 5% CO2 : 95% air environment. The medium was changed first at day 2 after culture preparation and then every 5-6 days. […] Images were recorded using a Zeiss Axiovert 100 microscope mounted with an AxioCam MRm camera using the accompanying ZEN 2012 software.
To induce TNF secretion, microglia cells were treated with lipopolysaccharide (LPS; 100 ng/mL; Sigma) following 1 h pretreatment in the absence or presence of Epobis. Conditioned media were collected 24 h later and released TNF was determined using a rat TNF Ready-SET-Go!® ELISA kit according to the manufacturer's instructions (eBioscience, San Diego, USA).

[5] = tested on: short-term/working memory of adult rats; assay: Social recognition test; assay type: in vivo, rat; details: 10 mg/kg single s.c., healthy adult rats
Protocol: The social recognition assay evaluates short-term/working memory of adult rats, a type of memory known to be impaired in old (>18 month) rats and in rats experiencing early stage AD [38]. Social recognition in rats was evaluated essentially as described previously. First, a habituation session was carried out; 24 h later, Epobis (10 mg/kg, 1 mL/kg, s.c.) or PBS (1.0 mL/kg, s.c.) was administered, and 1 h later the test animals were introduced to a new, juvenile male rat for 4 min (initial trial). After another 2.5 h the same juvenile rat was reintroduced, or as a control, an unfamiliar juvenile rat was introduced (test trial). To test long-term effects of the peptide, another social recognition test was performed with the initial trial taking place 73 h after administration of test compounds. Data are expressed as a recognition ratio: RR = T2/(T2 + T1), where T1 and T2 are the times spent on investigating the juvenile animal during the initial and the test trial, respectively.

[6] = 10 mg/kg s.c. once/day for 5 days from day 10, Lewis rats
[7] = biotinylated Epobis, 10 mg/kg single s.c., competitive ELISA, n = 6

Substance | effect on survival of EAE animals versus vehicle (EAE in Lewis rats; [6]) | effect on weight changes of EAE animals versus vehicle (EAE in Lewis rats; [6]) | activated microglia in the brain stem of EAE animals, Epobis versus vehicle (EAE in Lewis rats; 10 mg/kg s.c. once/day for 5 days from day 10, immunohistochemistry) | clinical signs of EAE versus vehicle, later time points (EAE in Lewis rats; 10 mg/kg s.c. once/day for 5 days from day 10, n = 10) | clinical signs of EAE versus vehicle, day 2 after onset (EAE in Lewis rats; 10 mg/kg s.c. once/day for 5 days from day 10, n = 10, p < 0.05) | Kd (EPO receptor) [nM] | L-cell viability relative to control (highest) ([1]; conditioned medium from IFN-γ-activated AMJ2-C8 macrophages pretreated 24 h with 2.7 μM Epobis, p < 0.05) | plasma : CSF ratio ([2]; 2 h after single s.c. 10 mg/kg) | time of peak plasma concentration [2, 7] | time the peptide remained detectable in blood [2, 7] | concentration of maximal stimulation of neurite outgrowth (primary rat motoneurons) [µM] | effect on hematocrit [3] | effect on hemoglobin levels [3] | LPS-induced TNF secretion from microglia [4] | recognition ratio (RR) versus vehicle, test 73 h after administration ([5]; n = 12, t-test p < 0.018, different from 0.5 p < 0.0001) | recognition ratio (RR) versus vehicle, test 1 h after administration ([5]; n = 12, t-test p > 0.05) | L-cell viability relative to control ([1]; conditioned medium from IFN-γ-activated AMJ2-C8 macrophages pretreated 24 h with 8.4 nM EPO)
I: NENITVPDTKVNFYAWKRKK-NH2 / II: NENITVPDTKVNFYAWKRK / III: NENITVPDTKVNFYAWKR / IV: NENITVPDTKVNFYAWKR (amide I:19-IV:C, I:20-II:C, II:19-III:C; C-terminus assumed) [Epobis] | no significant effects | no significant effects | no difference | not significantly different | significantly lower | ~60 | ~ 68% | approximately 20 | around 2 h | at least 24 h | 0.33 | did not cause any statistically significant increases | did not cause any statistically significant increases | significant decrease | significantly lower | no significant difference | –
erythropoietin [EPO] | – | – | – | – | – | – | – | – | – | – | – | statistically significant increases | statistically significant increases | – | – | – | ~ 64%
